From ChEMBL document CHEMBL5226342, “Novel Reversible-Binding PET Ligands for Imaging Monoacylglycerol Lipase Based on the Piperazinyl Azetidine Scaffold” (J Med Chem, 2021)
Values belong to the compound of their own block, whether it stands above or below them. Activity calls are given as the source filed them. The rule behind the calls is not given here.

Assays:
[1] = target: T1, Monoglyceride lipase (Mus musculus) (UniProt O35678); assay: Irreversible inhibition of MAGL in mouse brain membrane fraction assessed as enzyme recovery by measuring FP-rhodamine reactivity at 50 nM preincubated for 30 mins followed by FP-rhodamine challenge for 5 to 180 mins by Activity-Based Protein Profiling analysis; format: cell membranes; settings: time 35-210 min
T1 sequence (whole entry): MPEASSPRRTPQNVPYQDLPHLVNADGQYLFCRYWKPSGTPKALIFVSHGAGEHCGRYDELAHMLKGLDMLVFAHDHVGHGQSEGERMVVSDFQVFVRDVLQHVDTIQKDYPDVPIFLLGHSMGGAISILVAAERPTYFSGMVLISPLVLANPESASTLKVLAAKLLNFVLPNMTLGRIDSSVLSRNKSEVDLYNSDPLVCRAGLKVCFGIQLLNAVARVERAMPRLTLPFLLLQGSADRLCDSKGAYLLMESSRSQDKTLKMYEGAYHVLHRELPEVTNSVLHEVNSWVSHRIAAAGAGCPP

[2] = Drug uptake in iv dosed Sprague-Dawley rat cerebral cortex measured for 90 mins by PET imaging based analysis; format: ADME, organism-based; settings: in vivo, 1.5 h
[3] = Drug uptake in iv dosed Sprague-Dawley rat striatum measured for 90 mins by PET imaging based analysis; format: ADME, organism-based; settings: in vivo, 1.5 h
[4] = Drug uptake in iv dosed Sprague-Dawley rat hippocampus measured for 90 mins by PET imaging based analysis; format: ADME, organism-based; settings: in vivo, 1.5 h
[5] = Drug uptake in iv dosed Sprague-Dawley rat cerebellum measured for 90 mins by PET imaging based analysis; format: ADME, organism-based; settings: in vivo, 1.5 h
[6] = Drug uptake in iv dosed Sprague-Dawley rat pons measured for 90 mins by PET imaging based analysis; format: ADME, organism-based; settings: in vivo, 1.5 h
[7] = Drug uptake in mouse brain treated with MAGL inhibitor, JNJ-42226314 at 15 mins post-drug administration by PET imaging based analysis; format: ADME, tissue-based; settings: in vivo, 0.25 h
[8] = Drug uptake in iv dosed rhesus monkey brain by PET imaging based analysis; format: ADME, organism-based, Macaca mulatta; settings: in vivo
[9] = Drug uptake in iv dosed rhesus monkey cortex by PET imaging based analysis; format: ADME, organism-based, Macaca mulatta; settings: in vivo
[10] = Drug uptake in iv dosed rhesus monkey cerebellum by PET imaging based analysis; format: ADME, organism-based, Macaca mulatta; settings: in vivo
[11] = Drug uptake in iv dosed rhesus monkey hippocampus by PET imaging based analysis; format: ADME, organism-based, Macaca mulatta; settings: in vivo
[12] = Drug uptake in iv dosed rhesus monkey striatum by PET imaging based analysis; format: ADME, organism-based, Macaca mulatta; settings: in vivo
[13] = Drug uptake in iv dosed rhesus monkey pons by PET imaging based analysis; format: ADME, organism-based, Macaca mulatta; settings: in vivo
[14] = Drug uptake in iv dosed rhesus monkey cortex measured after 60 mins by PET imaging based analysis; format: ADME, organism-based, Macaca mulatta; settings: in vivo, 1 h
[15] = Drug uptake in iv dosed rhesus monkey cerebellum measured after 60 mins by PET imaging based analysis; format: ADME, organism-based, Macaca mulatta; settings: in vivo, 1 h
[16] = Drug uptake in iv dosed rhesus monkey hippocampus measured after 60 mins by PET imaging based analysis; format: ADME, organism-based, Macaca mulatta; settings: in vivo, 1 h
[17] = Drug uptake in iv dosed rhesus monkey striatum measured after 60 mins by PET imaging based analysis; format: ADME, organism-based, Macaca mulatta; settings: in vivo, 1 h
[18] = Drug uptake in iv dosed CD-1 mouse heart measured after 60 mins by Ex vivo whole body biodistribution based analysis; format: ADME, organism-based; settings: 1 h
[19] = Drug uptake in iv dosed CD-1 mouse lung measured after 60 mins by Ex vivo whole body biodistribution based analysis; format: ADME, organism-based; settings: 1 h
[20] = Drug uptake in iv dosed CD-1 mouse pancreas measured after 60 mins by Ex vivo whole body biodistribution based analysis; format: ADME, organism-based; settings: 1 h
[21] = Drug uptake in iv dosed CD-1 mouse kidney measured after 60 mins by Ex vivo whole body biodistribution based analysis; format: ADME, organism-based; settings: 1 h
[22] = Drug uptake in iv dosed CD-1 mouse liver measured after 60 mins by Ex vivo whole body biodistribution based analysis; format: ADME, organism-based; settings: 1 h
[23] = Metabolic stability of the compound in iv dosed Sprague-Dawley rat brain assessed as parent compound remaining measured after 30 mins by radio-HPLC analysis; format: ADME, organism-based; settings: read-out: Stability
[24] = Metabolic stability of the compound in iv dosed Sprague-Dawley rat plasma assessed as parent compound remaining measured after 30 mins by radio-HPLC analysis; format: ADME, organism-based; settings: read-out: Stability
[25] = Metabolic stability of the compound in iv dosed Sprague-Dawley rat brain assessed as parent compound remaining measured after 60 mins by radio-HPLC analysis; format: ADME, organism-based; settings: read-out: Stability
[26] = Metabolic stability of the compound in iv dosed Sprague-Dawley rat plasma assessed as parent compound remaining measured after 60 mins by radio-HPLC analysis; format: ADME, organism-based; settings: read-out: Stability
[27] = Drug uptake in iv dosed rhesus monkey pons measured after 60 mins by PET imaging based analysis; format: ADME, organism-based, Macaca mulatta; settings: in vivo, 1 h
[28] = Drug uptake in iv dosed CD-1 mouse small intestine measured after 60 mins by Ex vivo whole body biodistribution based analysis; format: ADME, organism-based; settings: 1 h

inhibition [1]: Active
Compound: O=C(ON1C(=O)CCC1=O)N1CCN(C(c2ccc(Cl)cc2)c2ccc(Cl)cc2)CC1

SUVmax [2]: 0.8
Drug uptake [3]: Active
Drug uptake [4]: Active
Drug uptake [5]: Active
Drug uptake [6]: Active
Drug uptake [7]: Not Active
SUVmax [8]: 0.9
Drug uptake [9]: Active
Drug uptake [10]: Active
Drug uptake [11]: Active
Drug uptake [12]: Active
Drug uptake [13]: Active
Drug uptake [14]: Not Active
Drug uptake [15]: Not Active
Drug uptake [16]: Not Active
Drug uptake [17]: Not Active
Drug uptake [18]: Not Active
Drug uptake [19]: Not Active
Drug uptake [20]: Not Active
Drug uptake [21]: Not Active
Drug uptake [22]: Active
remaining at 0.5 h [23]: 97%
remaining at 0.5 h [24]: 81%
remaining at 1 h [25]: 94%
remaining at 1 h [26]: 56%
Drug uptake [27]: Not Active
Drug uptake [28]: Active
Compound: O=C(c1ccc2c(ccn2-c2ccc([18F])cc2)c1)N1CC(N2CCN(C(=O)c3nccs3)CC2)C1
